Laboratory results reported in patent publication US20070072209A1, “Methods of treatment and diagnosis of Kaposi's sarcoma (KS) and KS related diseases” (priority 2005, published 2007).

Key:
KSHV-infected DMVEC [1] = assay: siRNA treatment and focus inhibition assay; assay type: cell-based, human; conditions: observed up to 14 days post-transfection
Description: siRNA treatment and Focus Inhibition Assay. siRNA oligonucleotides were designed using the oligoengine design tool (Oligoengine, Seattle, Wash.). RNA olionucleotides were purchased from Oligoengine or Dharmacon Inc. (Lafayette, Colo.). […] The twenty-one nucleotide RNA oligos were resuspended according to manufacturer's instructions to obtain either 20 microM or 50 microM solutions and delivered to DMVEC by transfection. For transfection, cells were seeded into 35 mm plates for overnight incubation, and transfections were performed at approximately 80% confluence according to published methods. Briefly, from a 20 microM siRNA stock solution, 12 microL of siRNA was added (240 pmol) to 200 microL OPTI-MEM medium (Gibco). After a 10 minute incubation, 12 microL Oligofectamine (Invitrogen) diluted in 48 microL OPTI-MEM was mixed with the diluted siRNA and incubated for an addition 20 minutes. The complex was added dropwise to a […] containing 1 ml of complete endothelial growth medium. Cells were monitored for up to 14 days for evidence of foci-formation, as described for the PMO-AS assays. Control Cy3-Luciferase GL2 Duplex siRNA (Dharmacon) was used to monitor transient tranfection and the duration of siRNA expression in endothelial cells. Cy3 siRNA was visible for over 3 weeks post-transfection. […]

RDC1 mRNA = assay: qPCR of target mRNA after siRNA transfection: RDC1; assay type: cell-based, human; conditions: relative to FITC-tagged control siRNA or transfection reagent alone; KSHV-DMVEC
Description: (§1) Quantitative PCR. Real-time PCR was performed on an ABI 7700 sequence detection system (Applied Biosystems). To normalize gene expression between mock and infected samples, 18S RNA, beta-Actin and GAPDH were assessed. […] Total RNA was treated with Dnase I (Dnase Free:Ambion) before synthesis of cDNA by random hexamers and Superscript II (Invitrogen). […] Relative expression values between mock and infected samples were calculated by the comparative CT Method as previously described (Moses et al, 2002). […]
(§2) siRNA treatment and Focus Inhibition Assay. siRNA oligonucleotides were designed using the oligoengine design tool (Oligoengine, Seattle, Wash.). […] Cells were monitored for up to 14 days for evidence of foci-formation, as described for the PMO-AS assays. […]
Specifically, FIGS. 6A-D show, according to particular aspects of the present invention, small interfering RNA (siRNA) inhibition of RDC1, Neuritin, INSR and IGFBP2. […] Cells were treated with siRNA and monitored for up to 14 days. To calculate mRNA degradation, mRNA was isolated and qPCR was performed. mRNA levels were calculated relative to a FITC-tagged control siRNA (100%).

KSHV-infected DMVEC [2] = conditions: cited from earlier work
Uninfected DMVEC = conditions: cited from earlier work
KSHV-infected DMVEC [3] = conditions: cited from earlier work; remark: listed apart in the source
Neuritin mRNA = assay: qPCR of target mRNA after siRNA transfection: Neuritin; assay type: cell-based, human; conditions: relative to controls; RNA harvested day 3 post-transfection
Description: as §1, §2
Specifically, FIGS. 6A-D show, according to particular aspects of the present invention, small interfering RNA (siRNA) inhibition of RDC1, Neuritin, INSR and IGFBP2. […] Cells were treated with siRNA and monitored for up to 14 days. To calculate mRNA degradation, mRNA was isolated and qPCR was performed. mRNA levels were calculated relative to a FITC-tagged control siRNA (100%). […]

Row | Molecule | KSHV-induced focus formation / contact inhibition after siRNA (KSHV-infected DMVEC [1]) | reduction of RDC1 mRNA (RDC1 mRNA) [%] | focus formation (KSHV-infected DMVEC [2]; KSHV-infected DMVEC) | phenotype after removal of drug (KSHV-infected DMVEC [2]; even after exposure of cells to a 10 μM dose) | effect on cell morphology or viability (Uninfected DMVEC) | nonspecific cytotoxicity (cell viability controls) (KSHV-infected DMVEC [3]) | proliferative response to exogenous SCF (KSHV-infected DMVEC [3]) | reduction in Neuritin mRNA levels (Neuritin mRNA) [%]
1 | RDC1 siRNA #1: RDC1 siRNA giving the larger mRNA decrease; presumably RDC1-234, AACATGCCCAACAAAAGCGTC (guide AACATGCCCAACAAAAGCGTC; listed as DNA, chemistry not given here) | more stringent maintenance of contact inhibition | 56 |  |  |  |  |  | 
2 | Cc1ccc(NC(=O)c2ccc(CN3CCN(C)CC3)cc2)cc1Nc1nccc(-c2cccnc2)n1 [STI 571] |  |  | focus formation is inhibited | regeneration of the transformed phenotype | has effect on cell morphology or viability | not due to nonspecific cytotoxicity | inhibited | 
3 | Neuritin siRNA: Neuritin siRNA, AAAGATATCTGATTAATTCCA (SEQ ID NO:42) (guide AAAGATATCTGATTAATTCCA; listed as DNA, chemistry not given here) | maintained contact-inhibited growth |  |  |  |  |  |  | 63
